Experiments:
[1] = test system: necroptosis proteins in liver tissue; experiment: p-MLKL/MLKL and p-RIPK3/RIPK3 immunoblot in liver tissue of SIRS mice; type: in vivo, mouse; conditions: compared with mTNF-α alone; 5 mg/kg i.v.
Protocol: Representative blots and quantification of p-RIPK3/RIPK3 and p-MLKL/MLKL ratios in fold-change from control. Blots were normalized to endogenous β-actin.
Further details are provided as Supplementary Information.
Animal studies, injections and monitoring. Male C57BL/6J mice with 18-26 g (Charles River Laboratories International, Inc., Wilmington, MA, USA) were used at the age of 8-14 weeks. Five to seven animals were included in each experimental group. All animal experiments were carried out with the permission of local animal ethical committee in accordance with the EU Directive (2010/63/EU), Portuguese laws (DL113/2013, 2880/2015, 260/2016) and all relevant legislations. Animals received humane care in a temperature-controlled environment with a 12 h light-dark cycle and ad libitum access to pelleted chow and water, complying with the Institute’s guidelines, and as outlined in the “Guide for the Care and Use of Laboratory Animals” prepared by the National Academy of Sciences and published by the National Institutes of Health (NIH publication 86-23 revised 1985). […] Nec-1 was diluted as follows (v/v): 48% PBS 1X, 17% DMSO and 35% PEG 400. […] All injections were administered intravenously (i.v.) in 100 µL volume each.

[2] = Rat hepatic clearance (in vitro); type: in vitro ADME

Compound	p-MLKL/MLKL ratio in mouse liver tissue [1]	p-RIPK3/RIPK3 ratio in mouse liver tissue [1]	Rat hepatic clearance (in vitro) rate [2] [μL/min/1E6]
CN1C(=O)C(Cc2c[nH]c3ccccc23)NC1=S (stereo not drawn) [Nec-1, necrostatin-1]	decreased	decreased	–
O=C(c1cnn(Cc2ccccc2)c1)N1CCOc2ccccc2C1 [SN-6109]	–	–	87

Source: PMC7026080, “Phenotypic high-throughput screening platform identifies novel chemotypes for necroptosis inhibition” (Cell Death Discovery, 2020)
